Like-named read-outs stand apart in the source and are kept apart here.
Legend:
[1] = molecular target: IRAK4 enzyme (Homo sapiens (Human), UniProt Q9NWZ3); experiment: IRAK4 Biochemical Assay (TR-FRET, STK1 KinEASE)
How it was run: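 TR-FRET endpoint (KinEASE STK1): phosphopeptide detected with cryptate antibody and tracer after EDTA quench, ratio 665/615 nm, normalized to no-inhibitor wells as % inhibition. Reaction: 0.75 nM IRAK4, […] peptide, 500 μM ATP, pH 7.0 HEPES, 120 min room temperature, after 15 min compound preincubation with enzyme.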

[2] = tested on: TNFα; experiment: IRAK4 Monocyte TNFα Cell Based Assay; set-up: species or system human; conditions: human monocytes
How it was run: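 TNFα release quantified by HTRF (cryptate/XL665 antibody pair, overnight at RT) after 1 h compound pre-incubation (0.1% DMSO) and 4 h LPS challenge at 50 pg/ml, 37 °C, 5,000 monocytes per well. Signal ratio normalised between unstimulated (0%) and stimulated (100%) controls.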

[3] = Homo sapiens, Monocyte, second part of Table 2, compounds 33-343, unit inferred, read-out: EC50 MONO TNF HTRF
[4] = compounds 1-32, read-out: IC50 HTRF
[5] = Homo sapiens, Monocyte, LPS stimulated, compounds 1-32, read-out: EC50 TNF
[6] = second part of Table 2, compounds 33-343, unit inferred, read-out: IC50 IRAK4-HTBS
[7] = second part of Table 2, compounds 33-343, unit inferred, read-out: EC50 MONO TNF HTRF

Chain of IRAK4 enzyme (Q9NWZ3 whole entry): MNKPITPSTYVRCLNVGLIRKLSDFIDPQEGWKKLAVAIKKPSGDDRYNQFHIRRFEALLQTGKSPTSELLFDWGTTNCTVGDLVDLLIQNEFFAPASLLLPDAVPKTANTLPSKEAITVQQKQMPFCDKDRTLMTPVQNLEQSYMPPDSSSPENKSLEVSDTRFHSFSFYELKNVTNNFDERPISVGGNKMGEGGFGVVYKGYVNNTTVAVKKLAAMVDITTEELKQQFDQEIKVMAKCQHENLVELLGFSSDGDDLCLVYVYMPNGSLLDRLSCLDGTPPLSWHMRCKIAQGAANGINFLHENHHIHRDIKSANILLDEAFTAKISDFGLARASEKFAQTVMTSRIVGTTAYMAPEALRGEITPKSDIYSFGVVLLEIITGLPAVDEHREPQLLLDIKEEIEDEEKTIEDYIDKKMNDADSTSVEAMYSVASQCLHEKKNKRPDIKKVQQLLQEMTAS

Structure (SMILES) | IC50 [1] | EC50 [2, 3] | also measured
CC(=O)N[C@@H]1[C@@H]2CC[C@H]1CN(c1nnc(-c3cnc(-c4ccc5cnc(N[C@@H]6CCCC[C@@H]6N)nn45)cc3N[C@H](C)C#N)s1)C2 [Example 61, N-((1R,5S,8S)-3-(5-(6-(2-(((1R,2S)-2-aminocyclohexyl)amino)pyrrolo[2,1-f][1,2,4]triazin-7-yl)-4-(((R)-1-cyanoethyl)amino)pyridin-3-yl)-1,3,4-thiadiazol-2-yl)-3-azabicyclo[3.2.1]octan-8-yl)acetamide] | 1.01 nM | 5.3 nM | –
CC(C)Nc1cc(-c2ccc3cc(C#N)cnn23)ncc1-c1nnc([C@H]2CC[C@H](NC(=O)C3(C)COC3)CC2)s1 [Example 314, N-((1r,4r)-4-(5-(6-(3-cyanopyrrolo[1,2-b]pyridazin-7-yl)-4-(isopropylamino)pyridin-3-yl)-1,3,4-thiadiazol-2-yl)cyclohexyl)-3-methyloxetane-3-carboxamide] | 0.55 nM | 10.1 nM | –
CC(=O)NC1CC=C(c2nnc(-c3cnc(-c4ccc5cc(C#N)cnn45)cc3NC(C)C)s2)CC1 (stereo not drawn) [Example 313, N-(4-(5-(6-(3-cyanopyrrolo[1,2-b]pyridazin-7-yl)-4-(isopropylamino)pyridin-3-yl)-1,3,4-thiadiazol-2-yl)cyclohex-3-en-1-yl)acetamide] | 1.47 nM | 48.6 nM | –
CC(=O)N[C@H]1CC[C@H](c2nnc(-c3cnc(-c4ccc5cc(C#N)cnn45)cc3N[C@H]3CC[C@H](c4nnc(C(F)F)o4)CC3)s2)CC1 [Example 2, N-((1R,4r)-4-(5-(6-(3-cyanopyrrolo[1,2-b]pyridazin-7-yl)-4-(((1r,4R)-4-(5-(difluoromethyl)-1,3,4-oxadiazol-2-yl)cyclohexyl)amino)pyridin-3-yl)-1,3,4-thiadiazol-2-yl)cyclohexyl)acetamide] | – | – | IC50 [1, 4]: 1 nM; EC50 [2, 5]: 8 nM
CC(=O)N[C@@H]1CCN(c2nnc(-c3cnc(-c4ccc5cc(C#N)cnn45)cc3NC3(C)COC3)s2)CC1(F)F (single isomer, unassigned; isomer 1) [147 Isomer 1] | – | – | IC50 [1, 6]: 0.63 nM; EC50 [2, 7]: 8.2 nM
CC(C)Nc1cc(-c2ccc3cc(C#N)cnn23)ncc1-c1nnc(C(=O)N2CC[C@@H](NC(=O)OC(C)(C)C)C2)s1 [Example 222, tert-butyl (R)-(1-(5-(6-(3-cyanopyrrolo[1,2-b]pyridazin-7-yl)-4-(isopropylamino)pyridin-3-yl)-1,3,4-thiadiazole-2-carbonyl)pyrrolidin-3-yl)carbamate] | 1.79 nM | 1780 nM | –
CNc1cc(-c2ccc3cc(C#N)cnn23)ncc1-c1nnc([C@H]2CC[C@H](NC(C)=O)CC2)s1 [Example 22, N-((1r,4r)-4-(5-(6-(3-cyanopyrrolo[1,2-b]pyridazin-7-yl)-4-(methylamino)pyridin-3-yl)-1,3,4-thiadiazol-2-yl)cyclohexyl)acetamide] | – | – | IC50 [1, 4]: < 1 nM; EC50 [2, 5]: 25 nM
CC(=O)NC12CCC(c3nnc(-c4cnc(-c5ccc6cc(C#N)cnn56)cc4NC(C)C)s3)(C1)C2 [Example 288, N-(4-(5-(6-(3-cyanopyrrolo[1,2-b]pyridazin-7-yl)-4-(isopropylamino)pyridin-3-yl)-1,3,4-thiadiazol-2-yl)bicyclo[2.1.1]hexan-1-yl)acetamide] | 0.72 nM | 19.8 nM | –
CC(=O)N[C@H]1CCCN(C(=O)c2nnc(-c3cnc(-c4ccc5cc(C#N)cnn45)cc3NC(C)C)s2)C1 [Example 48, (S)-N-(1-(5-(6-(3-cyanopyrrolo[1,2-b]pyridazin-7-yl)-4-(isopropylamino)pyridin-3-yl)-1,3,4-thiadiazole-2-carbonyl)piperidin-3-yl)acetamide] | 1.91 nM | 37.5 nM | –
CC(=O)N1CCN(C(=O)c2nnc(-c3cnc(-c4ccc5cc(C#N)cnn45)cc3NC(C)C)s2)CC1 [Example 10, 7-(5-(5-(4-acetylpiperazine-1-carbonyl)-1,3,4-thiadiazol-2-yl)-4-(isopropylamino)pyridin-2-yl)pyrrolo[1,2-b]pyridazine-3-carbonitrile] | – | – | IC50 [1, 4]: < 1 nM; EC50 [2, 5]: 157 nM
CC(C)Nc1cc(-c2ccc3cc(C#N)cnn23)ncc1-c1nnc(CO)s1 [Example 5, 7-(5-(5-(hydroxymethyl)-1,3,4-thiadiazol-2-yl)-4-(isopropylamino)pyridin-2-yl)pyrrolo[1,2-b]pyridazine-3-carbonitrile] | – | – | IC50 [1, 4]: 1 nM; EC50 [2, 5]: 76 nM
CC(C)Nc1cc(-c2ccc3cc(C#N)cnn23)ncc1-c1nnc(N2CCNCC2)s1 [Example 130, 7-(4-(isopropylamino)-5-(5-(piperazin-1-yl)-1,3,4-thiadiazol-2-yl)pyridin-2-yl)pyrrolo[1,2-b]pyridazine-3-carbonitrile] | 0.64 nM | 18.7 nM | –
CC(C)Nc1cc(-c2ccc3cc(C#N)cnn23)ncc1-c1nnc(C(=O)N2CC[C@H](NC(=O)C3CC3)C2)s1 [Example 46, (S)-N-(1-(5-(6-(3-cyanopyrrolo[1,2-b]pyridazin-7-yl)-4-(isopropylamino)pyridin-3-yl)-1,3,4-thiadiazole-2-carbonyl)pyrrolidin-3-yl)cyclopropanecarboxamide] | 0.67 nM | 16.7 nM | –
CC(=O)N[C@@H]1CC[C@H](c2nnc(-c3cnc(-c4ccc5cc(C#N)cnn45)cc3NC(C)C)s2)C1 [Compound 248, N-((1R,3S)-3-(5-(6-(3-cyanopyrrolo[1,2-b]pyridazin-7-yl)-4-(isopropylamino)pyridin-3-yl)-1,3,4-thiadiazol-2-yl)cyclopentyl)acetamide] | 0.93 nM | 16.3 nM | –
CC(C)Nc1cc(-c2ccc3cc(C#N)cnn23)ncc1-c1nnc(N2CCS(=O)(=O)CC2)s1 [Compound 257, 7-(5-(5-(1,1-dioxidothiomorpholino)-1,3,4-thiadiazol-2-yl)-4-(isopropylamino)pyridin-2-yl)pyrrolo[1,2-b]pyridazine-3-carbonitrile] | 0.95 nM | 10000 nM | –
CC(C)Nc1cc(-c2ccc3cc(C#N)cnn23)ncc1-c1nnc([C@@H]2C[C@H]2C(C)(C)O)s1 (single isomer, unassigned; isomer 1) [132 Isomer 1] | – | – | IC50 [1, 6]: 1.29 nM; EC50 [2, 7]: 12.5 nM
CC(=O)NC12CCC(c3nnc(-c4cnc(-c5ccc6cc(C#N)cnn56)cc4NC(C)C)s3)(CC1)CC2 [Compound 280, N-(4-(5-(6-(3-cyanopyrrolo[1,2-b]pyridazin-7-yl)-4-(isopropylamino)pyridin-3-yl)-1,3,4-thiadiazol-2-yl)bicyclo[2.2.2]octan-1-yl)acetamide] | 1.03 nM | 7.4 nM | –
CC(=O)N[C@H]1CC[C@H](c2nnc(-c3cnc(-c4ccc5cc(C#N)cnn45)cc3NCC#N)s2)CC1 [Example 20, N-((1r,4r)-4-(5-(4-((cyanomethyl)amino)-6-(3-cyanopyrrolo[1,2-b]pyridazin-7-yl)pyridin-3-yl)-1,3,4-thiadiazol-2-yl)cyclohexyl)acetamide] | – | – | IC50 [1, 4]: < 1 nM; EC50 [2, 5]: 6 nM
CC(=O)NC1CCC(F)(c2nnc(-c3cnc(-c4ccc5cc(C#N)cnn45)cc3NC(C)C)s2)CC1 (stereo not drawn) [Example 194, N-(4-(5-(6-(3-cyanopyrrolo[1,2-b]pyridazin-7-yl)-4-(isopropylamino)pyridin-3-yl)-1,3,4-thiadiazol-2-yl)-4-fluorocyclohexyl)acetamide] | 0.75 nM | 64 nM | –
CC(C)Nc1cc(-c2ccc3cc(C#N)cnn23)ncc1-c1nnc(CCC(C)(C)O)s1 [Example 31, 7-(5-(5-(3-hydroxy-3-methylbutyl)-1,3,4-thiadiazol-2-yl)-4-(isopropylamino)pyridin-2-yl)pyrrolo[1,2-b]pyridazine-3-carbonitrile] | – | – | IC50 [1, 4]: < 1 nM; EC50 [2, 5]: 5 nM
CC(=O)N1CCC(c2nnc(-c3cnc(-c4ccc5cc(C#N)cnn45)cc3NC(C)C)s2)CC1 [Example 128, 7-(5-(5-(1-acetylpiperidin-4-yl)-1,3,4-thiadiazol-2-yl)-4-(isopropylamino)pyridin-2-yl)pyrrolo[1,2-b]pyridazine-3-carbonitrile] | 0.59 nM | 18.8 nM | –
